Data set [1] relates to SH-SY5Y. As to the kind of experiment: Cytotoxicity against human SH-SY5Y cells at 25 uM incubated for 72 hrs by CCK8 assay. Type of data set: toxicity, cell-based. In general terms: Formazan colour is commonly taken as a measure of viable cells.
Data set [2] has as its system SH-SY5Y. As to the kind of experiment: Neuroprotective activity against glutamate induced human SH-SY5Y cells at 10 uM preincubated for 30 mins followed by glutamate addition and measured after 24 hrs by LDH based assay. Type of data set: functional. As to conditions: time 24.5 hrs.
Data set [3] concerns SH-SY5Y. As to the kind of experiment: Neuroprotective activity against glutamate induced human SH-SY5Y cells at 1 uM preincubated for 30 mins followed by glutamate addition and measured after 24 hrs by LDH based assay. Type of data set: functional. As to conditions: time 24.5 hrs.
Data set [4] concerns SH-SY5Y. As to the kind of experiment: Neuroprotective activity against glutamate induced human SH-SY5Y cells at 0.1 uM preincubated for 30 mins followed by glutamate addition and measured after 24 hrs by LDH based assay. The note with it: time 24.5 hrs. Type of data set: functional.
The test system of the next data set is Rattus norvegicus. In words: Neuroprotective activity against MCAO-reperfusion induced Sprague-Dawley rat assessed as reduction in infarct volume at 6 mg/kg, ip by TTC staining based analysis (reference value: 40.02 +/- 2.61 %). On the set-up: scale not given: the % may be the effect or the level left. Type of data set: functional.

We go through nine compounds from ChEMBL document CHEMBL5634140, “Discovery of benzyloxy benzamide derivatives as potent neuroprotective agents against ischemic stroke” (Eur J Med Chem, 2023).

Regarding `Nc1cc(Cl)cc(Cl)c1OCc1ccc(C(=O)NCCS)cc1`, the Activity is given as 5.23% in the data set with SH-SY5Y [1], 61.07% with SH-SY5Y [2], 35.12% with SH-SY5Y [3] and 9.67% with SH-SY5Y [4].
In the case of `Nc1cc(Cl)cc(Cl)c1OCc1ccc(S(N)(=O)=O)cc1`, the Activity in the data set on SH-SY5Y [1] is given as 6.21%; with SH-SY5Y [2], 33.84%; in the data set on SH-SY5Y [3], 15.52%; in the data set with SH-SY5Y [4] it was <0%.
On to `CC1=NN(c2ccccc2)C(=O)C1` [EDARAVONE], for which the Activity in the data set on Rattus norvegicus is 27.06%.
Turning to `Nc1cc(Cl)cc(Cl)c1OCc1ccc(NS(=O)(=O)C(F)(F)F)cc1`, the Activity worked out at 2.21% in the data set with SH-SY5Y [1], 60.31% in the data set on SH-SY5Y [2], 36.13% with SH-SY5Y [3] and 10.69% in the data set on SH-SY5Y [4].
Turning to `NCCNC(=O)c1ccc(COc2c(N)cc(Cl)cc2Cl)cc1`, the Activity is recorded as < 0% in the data set on SH-SY5Y [1], 67.8% in the data set with SH-SY5Y [2], 41.14% with SH-SY5Y [3] and 12.87% in the data set with SH-SY5Y [4].
For the compound `Nc1cc(Cl)cc(Cl)c1OCc1ccc(C(=O)N[C@H]2CCCC[C@@H]2N)cc1`, the Activity with SH-SY5Y [1] is on record as 2.42%; in the data set on SH-SY5Y [2], 65.52%; in the data set with SH-SY5Y [3] it was 39.66%; with SH-SY5Y [4], 10.1%.
For the compound `COCCNC(=O)c1ccc(COc2c(N)cc(Cl)cc2Cl)cc1`, the Activity in the data set with SH-SY5Y [1] is reported as 1.33%; in the data set on SH-SY5Y [2] it was 65.14%; in the data set with SH-SY5Y [3], 40.46%; in the data set with SH-SY5Y [4], 11.71%.
For `CN(CCN)C(=O)c1ccc(COc2c(N)cc(Cl)cc2Cl)cc1`, the Activity in the data set on SH-SY5Y [1] was 2.21%; in the data set with SH-SY5Y [2] it was 44.82%; with SH-SY5Y [3], 32.51%; in the data set with SH-SY5Y [4], 11.33%.
For `NNC(=O)c1ccc(COc2c(N)cc(Cl)cc2Cl)cc1`, the Activity came out at 0.59% with SH-SY5Y [1], 22.56% in the data set with SH-SY5Y [2], 6.15% in the data set with SH-SY5Y [3] and 5.89% in the data set with SH-SY5Y [4].
